Experimental data from BindingDB's records for doi:10.1021/jm020164l (University of Montreal, 2002).

Target: Delta-type opioid receptor (Homo sapiens, UniProt P41143)
Assay: In vitro binding affinity against cloned human Opioid receptor delta 1 expressed in HEK 293S cells

Chain of Delta-type opioid receptor (P41143 whole entry): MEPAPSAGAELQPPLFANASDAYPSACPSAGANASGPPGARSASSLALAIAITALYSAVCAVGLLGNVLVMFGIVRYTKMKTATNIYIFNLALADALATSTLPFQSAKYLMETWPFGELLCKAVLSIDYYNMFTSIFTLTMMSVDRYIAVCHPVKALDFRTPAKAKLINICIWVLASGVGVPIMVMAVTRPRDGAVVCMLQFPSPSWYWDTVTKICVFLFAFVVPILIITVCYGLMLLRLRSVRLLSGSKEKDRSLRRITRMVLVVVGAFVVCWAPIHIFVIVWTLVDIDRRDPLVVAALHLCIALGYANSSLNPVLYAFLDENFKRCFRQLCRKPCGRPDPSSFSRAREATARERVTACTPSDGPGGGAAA

With C[C@H]1C2C3=CC=CCC3[C@@H](Cc3ccccc32)N1C (stereo partly drawn) [16,17-dimethyl-(16S)-17-azatetracyclo[7.6.2.02,7.010,15]heptadeca-2(7),3,5,12,14-pentaene] the IC50 was > 10 µM.
